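Briefly, cells in 96-well plates were exposed to five compound concentrations for 48 h, and endpoints were estimated by linear interpolation. Abbreviation: GI50, concentration required for 50% inhibition of growth.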 Calls of active or inactive are those of the source. Rule as the data show it: active = GI50 up to about 1.1 µM and inactive = higher.
Assays:
Test in all cases: DTP human tumour cell line panel, 48 h
SNB-19 = system: SNB-19
ACHN = system: ACHN
OVCAR-5 = system: OVCAR-5
SF-295 = system: SF-295
UACC-257 = system: UACC-257
COLO 205 = system: COLO 205
NCI-H460 = system: NCI-H460
MDA-MB-231 = system: MDA-MB-231
NCI-H23 = system: NCI-H23
LOX IMVI = system: LOX IMVI
SW-620 = system: SW-620
HOP-62 = system: HOP-62
TK-10 = system: TK-10
SF-539 = system: SF-539
U-251 = system: U-251
HCC 2998 = system: HCC 2998
RPMI-8226 = system: RPMI-8226
SK-MEL-5 = system: SK-MEL-5
HT-29 = system: HT-29
HL-60 = system: HL-60

| Structure (SMILES) | GI50 (SNB-19) | GI50 (ACHN) | GI50 (OVCAR-5) | GI50 (SF-295) | GI50 (UACC-257) | GI50 (COLO 205) | GI50 (NCI-H460) | GI50 (MDA-MB-231) | GI50 (NCI-H23) | GI50 (LOX IMVI) | GI50 (SW-620) | GI50 (HOP-62) | GI50 (TK-10) | GI50 (SF-539) | GI50 (U-251) | GI50 (HCC 2998) | GI50 (RPMI-8226) | GI50 (SK-MEL-5) | GI50 (HT-29) | GI50 (HL-60) |
| --- | --- | --- | --- | --- | --- | --- | --- | --- | --- | --- | --- | --- | --- | --- | --- | --- | --- | --- | --- | --- |
| O=C(CC(=O)Nc1ccccc1Cl)NNC(c1cc(/N=N/c2ccc(Br)cc2)ccc1O)P(O)O (configuration not stated) | 4.1 µM (inactive) | 0.813 µM (active) | 3.61 µM (inactive) | 1.67 µM (inactive) | 3.2 µM (inactive) | 3.89 µM (inactive) | 0.537 µM (active) | 3.06 µM (inactive) | 2.53 µM (inactive) | 1.07 µM (active) | 0.647 µM (active) | 3.88 µM (inactive) | 1.61 µM (inactive) | 0.951 µM (active) | 1.54 µM (inactive) | 3.8 µM (inactive) | 2.84 µM (inactive) | 1.19 µM (inactive) | > 10 µM (inactive) | 0.323 µM (active) |
| COc1ccc(/C=C2\CC3C4CC=C5C[C@@H](O)CC[C@]5(C)C4CC[C@]3(C)C2=O)cc1OC (some centres not stated) | 62.4 µM (inactive) | 24.5 µM (inactive) | 43.5 µM (inactive) | 11.4 µM (inactive) | 13 µM (inactive) | 16.3 µM (inactive) | 17.3 µM (inactive) | 25.8 µM (inactive) | 42.6 µM (inactive) | 30.8 µM (inactive) | 65.6 µM (inactive) | 44 µM (inactive) | 32.3 µM (inactive) | 57.8 µM (inactive) | 26.2 µM (inactive) | 14.9 µM (inactive) | 10.2 µM (inactive) | 7.05 µM (inactive) | 31.8 µM (inactive) | 13.1 µM (inactive) |
| CCOC(=O)c1sc2c(c1OC(=O)c1ccc(OC)cc1)c(=O)n(-c1ccccc1)c(=S)n2-c1ccccc1 | > 100 µM (inactive) | > 100 µM (inactive) | > 100 µM (inactive) | > 100 µM (inactive) | > 100 µM (inactive) | > 100 µM (inactive) | 94.6 µM (inactive) | 16.4 µM (inactive) | > 100 µM (inactive) | > 100 µM (inactive) | > 100 µM (inactive) | 54 µM (inactive) | > 100 µM (inactive) | 77.8 µM (inactive) | > 100 µM (inactive) | 16.3 µM (inactive) | > 100 µM (inactive) | 27.6 µM (inactive) | > 100 µM (inactive) | > 100 µM (inactive) |
| Cc1ccc(C2=NOC(=O)[C@@H]3CCCC[C@@H]23)cc1 | > 100 µM (inactive) | > 100 µM (inactive) | > 100 µM (inactive) | > 100 µM (inactive) | > 100 µM (inactive) | > 100 µM (inactive) | – | 75.3 µM (inactive) | > 100 µM (inactive) | > 100 µM (inactive) | > 100 µM (inactive) | > 100 µM (inactive) | > 100 µM (inactive) | > 100 µM (inactive) | > 100 µM (inactive) | > 100 µM (inactive) | > 100 µM (inactive) | > 100 µM (inactive) | > 100 µM (inactive) | > 100 µM (inactive) |
| O=P1(N(CCCl)CCCl)Oc2ccc(Cl)cc2C(C(Cl)(Cl)Cl)c2cc(Cl)ccc2O1 (configuration not stated) | – | 15.5 µM (inactive) | 32.8 µM (inactive) | 3.68 µM (inactive) | 18 µM (inactive) | 12.9 µM (inactive) | 8.28 µM (inactive) | 18.6 µM (inactive) | 12.8 µM (inactive) | 15.2 µM (inactive) | 11.2 µM (inactive) | 11.8 µM (inactive) | 26.2 µM (inactive) | 14.8 µM (inactive) | 13.7 µM (inactive) | 10.9 µM (inactive) | 3.77 µM (inactive) | 11.4 µM (inactive) | 5.48 µM (inactive) | 4.26 µM (inactive) |
| O=c1c(Sc2ncccn2)c(Sc2ncccn2)cnn1CCl | 17 µM (inactive) | 2.21 µM (inactive) | 7.21 µM (inactive) | 15.3 µM (inactive) | 2.17 µM (inactive) | 1.76 µM (inactive) | 14.7 µM (inactive) | 6.98 µM (inactive) | 4.67 µM (inactive) | 2.01 µM (inactive) | 2.4 µM (inactive) | 1.49 µM (inactive) | 0.398 µM (active) | 1.52 µM (inactive) | 7.08 µM (inactive) | 10.8 µM (inactive) | 1.67 µM (inactive) | 6.87 µM (inactive) | 1.98 µM (inactive) | 2.04 µM (inactive) |
| CCN(CC)CCO/N=C1\CC[C@H]2[C@@H]3CCc4cc(OC)ccc4[C@H]3CC[C@]12C | 8.38 µM (inactive) | 3.57 µM (inactive) | 3.17 µM (inactive) | 1.83 µM (inactive) | 0.859 µM (active) | 1.57 µM (inactive) | 0.804 µM (active) | 3.37 µM (inactive) | 5.09 µM (inactive) | 0.789 µM (active) | 1.72 µM (inactive) | 1.77 µM (inactive) | 6.44 µM (inactive) | 1.97 µM (inactive) | 2.59 µM (inactive) | 1.71 µM (inactive) | 1.67 µM (inactive) | 1.73 µM (inactive) | 0.53 µM (active) | 0.885 µM (active) |
| [N-]=[N+]=NC1(c2ccccc2)C(=O)c2cccc3c4ccccc4n(c23)C1=O (configuration not stated) | > 100 µM (inactive) | > 100 µM (inactive) | > 100 µM (inactive) | 57.8 µM (inactive) | > 100 µM (inactive) | 6.5 µM (inactive) | > 100 µM (inactive) | > 100 µM (inactive) | 52.2 µM (inactive) | > 100 µM (inactive) | > 100 µM (inactive) | > 100 µM (inactive) | > 100 µM (inactive) | > 100 µM (inactive) | > 100 µM (inactive) | > 100 µM (inactive) | 45.3 µM (inactive) | > 100 µM (inactive) | 18.4 µM (inactive) | < 0.01 µM (active) |
| O=C1C(=O)N(C23CC4CC(CC(C4)C2)C3)C(=S)N1c1ccccc1 | > 100 µM (inactive) | > 100 µM (inactive) | > 100 µM (inactive) | 97.5 µM (inactive) | 32.7 µM (inactive) | > 100 µM (inactive) | 97.9 µM (inactive) | > 100 µM (inactive) | 49.1 µM (inactive) | > 100 µM (inactive) | > 100 µM (inactive) | > 100 µM (inactive) | 58.9 µM (inactive) | > 100 µM (inactive) | > 100 µM (inactive) | > 100 µM (inactive) | > 100 µM (inactive) | 61.2 µM (inactive) | > 100 µM (inactive) | 42.8 µM (inactive) |
| COc1ccc(Oc2ccc3cc4c(cc3c2O)OCO4)c2cc(C)oc12 | 36.9 µM (inactive) | 35.6 µM (inactive) | 59 µM (inactive) | 33.5 µM (inactive) | 20.8 µM (inactive) | 25.5 µM (inactive) | 21.5 µM (inactive) | 33.9 µM (inactive) | 26.4 µM (inactive) | 19.3 µM (inactive) | 27.2 µM (inactive) | 41.1 µM (inactive) | 25.4 µM (inactive) | 20.2 µM (inactive) | – | 23.2 µM (inactive) | 14.9 µM (inactive) | 16.4 µM (inactive) | 23.2 µM (inactive) | 25.1 µM (inactive) |
| CC(=O)OC1/C(=C/c2ccc([N+](=O)[O-])cc2)C[C@H]2[C@@H]3CC=C4C[C@@H](OC(C)=O)CC[C@]4(C)[C@H]3CC[C@]12C (some centres not stated) | > 72.4 µM (inactive) | 99.8 µM (inactive) | > 100 µM (inactive) | > 73.6 µM (inactive) | > 100 µM (inactive) | > 54.6 µM (inactive) | > 100 µM (inactive) | 58.3 µM (inactive) | > 100 µM (inactive) | > 100 µM (inactive) | > 100 µM (inactive) | 34.7 µM (inactive) | 29.6 µM (inactive) | 59.6 µM (inactive) | 46 µM (inactive) | > 100 µM (inactive) | > 71.3 µM (inactive) | > 100 µM (inactive) | > 100 µM (inactive) | 2.61 µM (inactive) |
| O=c1oc2c(ccc3c(O)cccc32)c2c1CCCC2 | 27.7 µM (inactive) | 26.8 µM (inactive) | > 100 µM (inactive) | 14.5 µM (inactive) | > 100 µM (inactive) | > 100 µM (inactive) | 45.2 µM (inactive) | 17.4 µM (inactive) | 26.9 µM (inactive) | 16.7 µM (inactive) | > 100 µM (inactive) | 18.9 µM (inactive) | > 100 µM (inactive) | 22.2 µM (inactive) | 15 µM (inactive) | 5.61 µM (inactive) | > 100 µM (inactive) | 47.2 µM (inactive) | > 100 µM (inactive) | > 100 µM (inactive) |
| COc1ccc2cc(C(C)C(=O)N3CCOC3=O)ccc2c1 (configuration not stated) | > 100 µM (inactive) | > 100 µM (inactive) | > 100 µM (inactive) | > 100 µM (inactive) | > 100 µM (inactive) | > 100 µM (inactive) | > 100 µM (inactive) | > 100 µM (inactive) | > 100 µM (inactive) | > 100 µM (inactive) | > 100 µM (inactive) | > 100 µM (inactive) | > 100 µM (inactive) | > 100 µM (inactive) | > 100 µM (inactive) | > 100 µM (inactive) | > 100 µM (inactive) | > 100 µM (inactive) | > 100 µM (inactive) | > 100 µM (inactive) |
| Nc1ccc(-c2nc3cc(F)ccc3s2)cc1 | > 100 µM (inactive) | 20.6 µM (inactive) | 26.4 µM (inactive) | 25.5 µM (inactive) | > 43.4 µM (inactive) | 61 µM (inactive) | 7.98 µM (inactive) | 22.5 µM (inactive) | 1.43 µM (inactive) | 45.1 µM (inactive) | > 100 µM (inactive) | 18.3 µM (inactive) | 30.5 µM (inactive) | > 66.1 µM (inactive) | 39.4 µM (inactive) | 26.3 µM (inactive) | > 100 µM (inactive) | 61.4 µM (inactive) | > 91 µM (inactive) | 25.4 µM (inactive) |
